Results: PubChem BioAssay (NCI)
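Grown in 96-well plates, cells were treated for 48 hours with each compound at five concentrations. Insufficient inhibition: endpoint recorded as highest concentration tested. GI50 marks 50% less growth. Definition used: TGI = concentration required for complete inhibition of growth.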

Legend:
Experiment in all cases: NCI anticancer screen, dose series, 48 h
CAKI-1 renal = tested on: CAKI-1 renal
U251 CNS = tested on: U251 CNS
OVCAR-5 ovarian = tested on: OVCAR-5 ovarian
NCI-H522 lung = tested on: NCI-H522 lung
T-47D breast = tested on: T-47D breast
K-562 leukemia = tested on: K-562 leukemia
SF-268 CNS = tested on: SF-268 CNS
HOP-62 NSCLC = tested on: HOP-62 NSCLC
MALME-3M melanoma = tested on: MALME-3M melanoma
SR leukemia = tested on: SR leukemia

Structure (SMILES)	TGI (CAKI-1 renal) [µM]	TGI (U251 CNS) [µM]	TGI (OVCAR-5 ovarian) [µM]	TGI (NCI-H522 lung) [µM]	TGI (T-47D breast) [µM]	TGI (K-562 leukemia) [µM]	TGI (SF-268 CNS) [µM]	TGI (HOP-62 NSCLC) [µM]	TGI (MALME-3M melanoma) [µM]	TGI (SR leukemia) [µM]	GI50 (CAKI-1 renal) [µM]	GI50 (U251 CNS) [µM]	GI50 (OVCAR-5 ovarian) [µM]	GI50 (NCI-H522 lung) [µM]	GI50 (T-47D breast) [µM]	GI50 (K-562 leukemia) [µM]	GI50 (SF-268 CNS) [µM]	GI50 (HOP-62 NSCLC) [µM]	GI50 (MALME-3M melanoma) [µM]	GI50 (SR leukemia) [µM]
C=CCOC(=O)N1c2ccc(O)cc2[C@@]23O[C@@]24[C@@H]1C#C/C=C\C#C[C@]3(O)C(OC)(OC)C[C@@H]4C	> 100	> 100	> 100	74.6	> 100	> 100	> 100	85.9	82	62.2	–	–	–	–	–	–	–	–	–	–
COC(=O)c1ccccc1/C=C1\Cc2ccc3c(c2C1=O)CCCC3	> 100	> 100	> 100	> 100	> 100	> 100	> 100	> 100	> 100	> 100	–	–	–	–	–	–	–	–	–	–
CCOC(=O)[C@@]1(C)CC(O)C(=O)N1C (stereo partly specified)	> 100	> 100	> 100	> 100	> 100	–	> 100	> 100	> 100	> 100	–	–	–	–	–	–	–	–	–	–
O=C(OC1CN2CCC1CC2)N(c1ccccc1)c1ccccc1 (stereo unspecified)	> 100	> 100	> 100	> 100	> 100	> 100	> 100	> 100	> 100	> 100	–	–	–	–	–	–	–	–	–	–
CCCCc1ccc(Nc2nc(Cl)c3c(ncn3C3CC(Oc4ccc(C)cc4)C(COc4ccc(C)cc4)O3)n2)cc1 (stereo unspecified)	> 100	> 100	> 100	> 100	> 100	> 100	> 100	> 100	> 100	> 100	–	–	–	–	–	–	–	–	–	–
S=c1nc(N/N=C/c2cccs2)c2cn[nH]c2[nH]1	42.9	77.6	49.5	76.8	> 100	> 100	> 100	69	> 100	37.2	–	–	–	–	–	–	–	–	–	–
O=C(CN1CCCCC1)Nc1ccc2c(c1)C1Oc3ccccc3CC1CO2 (stereo unspecified)	> 100	33.3	38.2	36.3	52	> 100	> 100	34.1	32.2	> 100	–	–	–	–	–	–	–	–	–	–
Cc1ccc(S(=O)(=O)N/N=C2\CC3CC4CCC2C4C3)cc1 (stereo unspecified)	> 100	> 100	> 100	> 100	> 100	> 100	> 100	> 100	> 100	> 100	–	–	–	–	–	–	–	–	–	–
O=C(N/N=C\c1cccc2ccccc12)Nc1cccc2ccccc12	83.4	34.9	> 100	> 100	> 100	15.6	> 100	23.1	> 100	13.6	–	–	–	–	–	–	–	–	–	–
Cc1ccc(-c2cc[n+]3c(n2)oc2ccccc23)cc1	> 100	> 100	> 100	20	> 100	22.5	> 100	–	29.1	47	–	–	–	–	–	–	–	–	–	–
CN(C)CCOc1ccc(-c2c(Oc3ccccc3)c(=O)oc3ccccc23)cc1	48.7	17.3	29.2	24.1	44.1	23	25.4	–	25.8	19.4	–	–	–	–	–	–	–	–	–	–
CCOC1NC(=O)Oc2cc3ccccc3cc21 (stereo unspecified)	–	> 100	> 100	> 100	> 100	> 100	> 100	> 100	> 100	> 100	–	–	–	–	–	–	–	–	–	–
CC(=O)O[C@H]1C(=O)[C@@]2(C)[C@H]([C@H](OC(=O)c3ccccc3)[C@]3(O)C[C@H](OC(=O)[C@H](O)[C@@H](NC(=O)c4ccccc4)c4cccc(N(C)C)c4)C(C)=C1C3(C)C)[C@]1(OC(C)=O)CO[C@@H]1C[C@@H]2O	> 75	> 27	> 15.8	3.69	30.7	> 75	> 75	> 18.3	> 67.1	9.71	–	–	–	–	–	–	–	–	–	–
Cc1cc(OCCOCCC(F)(F)P(=O)(O)O)ccc1CCc1cnc2c(N)nc3cc(CCC(=O)O)ccc3c2c1	> 100	> 100	> 100	> 100	> 100	> 100	> 100	> 100	> 100	> 100	72.7	> 100	> 100	> 100	> 100	> 100	> 100	> 100	> 100	> 100
CN(CCCNC(=O)c1nn(C)c2c1Cc1ccccc1-2)CCCNC(=O)c1nn(C)c2c1Cc1ccccc1-2	35.5	26.2	40.8	40.6	61.8	25.6	37.9	26.8	37.2	> 100	–	–	–	–	–	–	–	–	–	–
